Data from ChEMBL document CHEMBL3400043, “Design, synthesis and biological evaluation of GY3-based derivatives for anti-type 2 diabetes activity” (Bioorg Med Chem Lett, 2015).
Calls of active or inactive are those of the source. The rule behind the calls is not given here.

Legend:
HepG2 [1] = test: Induction of glucose consumption in human HepG2 cells at 10^-5 M after 24 hrs by glucose oxidase method (reference value: 2 +/- 0.09 mM); type: functional
HepG2 [2] = test: Induction of glucose consumption in human HepG2 cells at 10^-5 M after 24 hrs by glucose oxidase method relative to control; type: functional
[3] = biological target: T1, Peroxisome proliferator-activated receptor gamma (Homo sapiens) (UniProt P37231); test: Agonist activity at human PPARgamma expressed in U2OS cells coexpressing human RXR assessed as luciferase activity at 10 uM after 24 hrs by transactivation assay relative to control; type: cell-based
T1 sequence (whole entry): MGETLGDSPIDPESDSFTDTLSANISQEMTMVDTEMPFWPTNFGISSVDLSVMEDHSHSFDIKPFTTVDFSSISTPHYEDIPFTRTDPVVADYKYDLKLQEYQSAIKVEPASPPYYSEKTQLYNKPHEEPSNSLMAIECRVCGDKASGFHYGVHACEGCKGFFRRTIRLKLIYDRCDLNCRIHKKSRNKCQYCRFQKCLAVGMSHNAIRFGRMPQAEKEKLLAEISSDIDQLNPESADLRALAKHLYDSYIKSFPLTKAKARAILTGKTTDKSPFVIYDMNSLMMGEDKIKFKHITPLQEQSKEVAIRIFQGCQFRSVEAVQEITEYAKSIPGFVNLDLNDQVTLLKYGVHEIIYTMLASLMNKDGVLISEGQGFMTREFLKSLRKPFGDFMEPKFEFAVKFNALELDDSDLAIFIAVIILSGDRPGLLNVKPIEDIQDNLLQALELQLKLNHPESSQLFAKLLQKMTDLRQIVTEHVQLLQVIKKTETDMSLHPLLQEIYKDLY

HepG2 [4] = test: Induction of glucose consumption in human HepG2 cells at 10^-6 M after 24 hrs by glucose oxidase method relative to control; type: functional
HepG2 [5] = test: Induction of glucose consumption in human HepG2 cells at 10^-7 M after 24 hrs by glucose oxidase method relative to control; type: functional
Mus musculus [6] = test: Toxicity in eight week old female db/db mouse assessed as effect on body weight at 30 mg/kg, intragastric for 3 weeks; type: organism-based; set-up: dose 30 mg/kg, route intragastric; conditions: in vivo, po, 504 h
Mus musculus [7] = test: Toxicity in eight week old female db/db mouse assessed as body weight increase at 30 mg/kg, intragastric for 3 weeks; type: organism-based; set-up: dose 30 mg/kg, route intragastric; conditions: in vivo, po, 504 h
Mus musculus [8] = test: Hypoglycemic effect in eight week old female db/db mouse assessed as reduction in blood glucose level at 30 mg/kg, intragastric for 1 week; type: functional; conditions: po, 168 h
Mus musculus [9] = test: Hypoglycemic effect in eight week old female db/db mouse assessed as reduction in fasting triglyceride level at 30 mg/kg, intragastric for 3 weeks; type: functional, organism-based; set-up: dose 30 mg/kg
Mus musculus [10] = test: Hypoglycemic effect in eight week old female db/db mouse assessed as reduction in blood glucose level at 30 mg/kg, intragastric for 2 weeks; type: functional; conditions: po, 336 h
Mus musculus [11] = test: Hypoglycemic effect in eight week old female db/db mouse assessed as reduction in blood glucose level at 30 mg/kg, intragastric for 3 weeks; type: functional; conditions: po, 504 h
Mus musculus [12] = test: Reduction in total cholesterol level in eight week old female db/db mouse at 30 mg/kg, intragastric for 3 weeks; type: functional, organism-based; set-up: dose 30 mg/kg
HepG2 [13] = test: Induction of glucose consumption in human HepG2 cells at 10^-3 M after 24 hrs by glucose oxidase method relative to control; type: functional
HepG2 [14] = test: Induction of glucose consumption in human HepG2 cells at 10^-3 M after 24 hrs by glucose oxidase method (reference value: 2 +/- 0.09 mM); type: functional

| Ratio [3] | Structure (SMILES) | Activity (HepG2 [1]) [mM] | Activity (HepG2 [2]) [%] | other results |
| --- | --- | --- | --- | --- |
| 2 | C[C@@H]1[C@@H](CC(=O)O)c2cc(OCCc3ccccc3)ccc2N1C(=O)c1ccc(Cl)cc1 | 2.05 | 2.1 |  |
| 3.28 | Cc1c(CCCC(=O)O)c2cc(OCc3ccccc3)ccc2n1C(=O)c1ccc(Cl)cc1 | 2.55 | 27.3 | Activity (HepG2 [4]): 8.3%; Activity (HepG2 [5]): 12.5%; Activity (Mus musculus [6]): Non-toxic |
| 1.72 | C[C@H]1[C@@H](CC(=O)O)c2cc(OCc3ccccc3)ccc2N1C(=O)c1ccc(Cl)cc1 | 2.01 | 0.6 |  |
| 2.48 | Cc1c(CCC(=O)O)c2cc(OCc3ccccc3)ccc2n1S(=O)(=O)c1ccc(Cl)cc1 | 2.45 | 22.1 | Activity (HepG2 [4]): 10.5%; Activity (HepG2 [5]): 17.7% |
| 2.72 | Cc1c(CCC(=O)O)c2cc(OCc3ccccc3)ccc2n1C(=O)c1ccc(Cl)cc1 | 2.53 | 26.1 | Activity (HepG2 [4]): 14.1%; Activity (HepG2 [5]): 19.2%; Activity (Mus musculus [6]): Non-toxic |
| 2.44 | Cc1c(CCCC(=O)O)c2cc(OCc3ccccc3)ccc2n1S(=O)(=O)c1ccc(Cl)cc1 | 2.78 | 38.9 | Activity (HepG2 [4]): 15.3%; inhibition in vivo at 30 mg/kg (Mus musculus [8]): > 25%; inhibition (Mus musculus [12]): Active; Activity (HepG2 [5]): 18.2%; inhibition in vivo at 30 mg/kg (Mus musculus [11]): 13.9%; Activity (Mus musculus [6]): Non-toxic |
| 3.51 | C[C@@H]1[C@@H](CC(=O)O)c2cc(OCc3ccccc3)ccc2N1C(=O)c1ccc(Cl)cc1 | 2.4 | 20 |  |
| 3.82 | Cc1c(CC(=O)O)c2cc(OCc3ccccc3)ccc2n1C(=O)c1ccc(Cl)cc1 | 2.44 | 21.9 | inhibition in vivo at 30 mg/kg (Mus musculus [8]): > 25%; inhibition in vivo at 30 mg/kg (Mus musculus [10]): > 30%; inhibition in vivo at 30 mg/kg (Mus musculus [11]): 13.5% |
| 2.2 | C[C@@H]1[C@@H](CC(=O)O)c2cc(OCc3ccccc3)ccc2N1C(=O)Cc1ccc(Cl)cc1 | 2.35 | 17 |  |

Continued, compound first:

| Structure (SMILES) | Ratio [3] | Activity (HepG2 [1]) [mM] | Activity (HepG2 [2]) [%] | other results |
| --- | --- | --- | --- | --- |
| CN(CCOc1ccc(CC2SC(=O)NC2=O)cc1)c1ccccn1 (stereo not drawn) [ROSIGLITAZONE] |  | 2.53 | 26.5 |  |
| C[C@@H]1[C@@H](CC(=O)O)c2cc(OCc3ccccc3)ccc2N1C(=O)c1ccc(C#N)cc1 | 2.05 | 2.26 | 12.6 |  |
| C[C@@H]1[C@@H](CC(=O)O)c2cc(OCc3ccccc3)ccc2N1C(=O)c1ccc(F)cc1 | 1.74 | 2.24 | 11.6 |  |
| C[C@@H]1[C@@H](CC(=O)O)c2cc(OCc3ccccc3)ccc2N1C(=O)C12CC3CC(CC(C3)C1)C2 | 1.63 | 2.1 | 4.8 | Activity (Mus musculus [6]): Non-toxic |
| COc1ccc(C(=O)N2c3ccc(OCc4ccccc4)cc3[C@H](CC(=O)O)[C@H]2C)cc1 | 2.14 | 2.22 | 10.8 |  |
| C[C@@H]1[C@@H](CC(=O)O)c2cc(OCc3ccccc3)ccc2N1C(=O)c1ccccc1 | 2.05 | 2.14 | 6.9 |  |
| C[C@@H]1[C@@H](CC(=O)O)c2cc(OCCCCc3ccccc3)ccc2N1C(=O)c1ccc(Cl)cc1 | 1.81 | 1.98 | -1.2 |  |
| CCc1ccc(CCOc2ccc(CC3SC(=O)NC3=O)cc2)nc1 (stereo not drawn) [PIOGLITAZONE] |  |  |  | Activity (Mus musculus [7]): 16.3%; inhibition in vivo at 30 mg/kg (Mus musculus [8]): > 25%; inhibition (Mus musculus [9]): Active; inhibition in vivo at 30 mg/kg (Mus musculus [10]): > 30%; inhibition in vivo at 30 mg/kg (Mus musculus [11]): 30.6% |
| C[C@@H]1[C@@H](CC(=O)O)c2cc(OCc3ccccc3)ccc2N1S(=O)(=O)c1ccc(Cl)cc1 | 2.37 | 2.33 | 16.3 |  |
| COc1ccc(CC(=O)N2c3ccc(OCc4ccccc4)cc3[C@H](CC(=O)O)[C@H]2C)cc1OC | 2 | 2.2 | 9.9 |  |
| CC(Oc1ccc2c(c1)[C@H](CC(=O)O)[C@@H](C)N2C(=O)c1ccc(Cl)cc1)c1ccccc1 (stereo partly drawn) | 1.66 | 2.2 | 9.8 |  |
| CN(C)C(=N)NC(=N)N [METFORMIN] |  |  |  | Activity (HepG2 [13]): 51%; Activity (HepG2 [14]): 3.03 mM |
| C[C@@H]1[C@@H](CC(=O)O)c2cc(OCc3ccccc3)ccc2N1C(=O)c1ccncc1 | 1.73 | 2.46 | 22.6 | Activity (HepG2 [4]): -4.6%; inhibition (Mus musculus [9]): Active; inhibition in vivo at 30 mg/kg (Mus musculus [10]): > 30%; Activity (HepG2 [5]): -4.1%; inhibition in vivo at 30 mg/kg (Mus musculus [11]): 14.9% |
| C[C@@H]1[C@@H](CC(=O)O)c2cc(OCc3ccccc3)ccc2N1C(=O)c1ccc(C(F)(F)F)cc1 | 1.72 | 2.2 | 9.8 |  |
| C[C@@H]1[C@@H](CC(=O)O)c2cc(OCc3cccnc3)ccc2N1C(=O)c1ccc(Cl)cc1 | 1.62 | 1.87 | -6.7 |  |
| C[C@@H]1[C@@H](CC(=O)O)c2cc(OCc3ccncc3)ccc2N1C(=O)c1ccc(Cl)cc1 | 1.49 | 1.7 | -15.4 |  |
